Assays:
[1] = target: T1, human EP2 prostanoid receptors (Homo sapiens, UniProt P43116); experiment: Agonist activity at recombinant human EP2 prostanoid receptors (cAMP in HEK-293 clones); assay type: cell-based; conditions: for EC50: HEK-293 stably transfected with human EP2, cAMP accumulation, read-out: pEC50 EP2 (converted); for activity (EP2 part): functional classification at EP2
T1 construct: expressed in transfected cells; host or cells: HEK-293
Method: Culture media was Minimal essential media (MEM), supplemented with 10% foetal bovine serum, 100 U/ml penicillin, […] streptomycin, 2.5 μg/ml fungizone, 2mM glutamine. Cells were cultured to confluency (3-4 days) prior to use. Culture media was removed, and confluent cells washed three times in MEM. […] Cells were then stimulated by the addition of 25 μl of PGE2 or agonists prepared in assay buffer. In antagonist studies, cells were pre-incubated with compounds for 30 minutes prior to PGE2-mediated stimulation Plates were incubated for 15 min at 37° C., before termination of the reaction by the addition of 25 μl 1M HCl. The plate was then frozen at -20° C. overnight before determination of cAMP concentration. Stimulated cAMP levels were determined by radioligand displacement binding. In brief, plates were thawed rapidly in a waterbath, and the samples neutralised by the addition of 25 μl 1M NaOH. 30 μl was transferred to Millipore plates pre-coated with 0.5% Polyethylenimine (PEI). Samples were diluted by addition of 90 μl cAMP determination buffer (50 mM Tris, 5 mM EDTA, pH 7.0). […] 15 μl of 2 nM (final concentration) [^3H] cAMP, and 15 μl of 3'5'-cAMP protein kinase (8 μg/well final concentration) prepared in cAMP determination buffer containing 0.1% BSA, were added to each well. Plates were incubated on ice for 2 hours, before bound and free radiolabel were separated by vacuum filtration harvesting using the Millipore vacuum manifold, using ice cold water as the termination buffer. The sealing mat was removed from the Millipore plates, and the filters allowed to dry overnight. 50 μl Microscint 0 (Packard Bioscience) was added to each well, and the plate counted using the Micro-Beta Trilux topcount ^3H program. cAMP accumulation was determined from the standard curve, and values calculated in pmoles cAMP/well. Antagonists affinities (pA2 values) were determined assuming a slope of unity and the […]-Schild equation, where pA2=log [concentration ratio-1]-log[antagonist].

human EP2 receptor = target: T2, human EP2 receptor (Homo sapiens, UniProt P43116); experiment: Binding ability to human EP receptors ([3H]PGE2 displacement), EP2; conditions: membranes expressing human EP2; [3H]PGE2 3 nM; Cheng-Prusoff; read-out: pKi (M) EP2 (converted)
T2 construct: expressed in transfected cells
T2 sequence (P43116 whole entry): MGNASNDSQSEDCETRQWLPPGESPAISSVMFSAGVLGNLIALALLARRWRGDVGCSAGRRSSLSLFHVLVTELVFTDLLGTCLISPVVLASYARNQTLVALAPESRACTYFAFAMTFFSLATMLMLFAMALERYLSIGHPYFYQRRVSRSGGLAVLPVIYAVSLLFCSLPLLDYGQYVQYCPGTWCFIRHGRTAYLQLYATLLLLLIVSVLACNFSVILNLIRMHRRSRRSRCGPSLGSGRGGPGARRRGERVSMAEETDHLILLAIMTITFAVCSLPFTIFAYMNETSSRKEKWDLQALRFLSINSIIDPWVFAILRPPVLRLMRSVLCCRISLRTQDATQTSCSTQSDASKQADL
Method: (§1) Membranes were prepared from cells stably transfected with human EP receptor cDNA. In brief, cells were cultured to confluency, scraped from culture flasks, and centrifuged (800 g, 8 minutes, 4° C.). Cells were twice washed in ice cold homogenisation buffer containing 10 mMTris-HCl, 1 mM EDTA.2Na, 250 mM sucrose, 1 mM PMSF, 0.3 mM indomethacin, pH 7.4, homogenised and re-centrifuged as before. The supernatant was stored on ice and pellets re-homogenised and re-spun. Supernatants were pooled and centrifuged at 40000 g, 10 minutes, 4° C. Resultant membrane pellets were stored at −80° C. until use. For assay, membranes expressing human EP4, EP3, EP2 or EP1 receptors were incubated in Millipore (MHVBN45) plates containing assay buffer, radiolabelled [^3H]PGE2 and 0.1 to 10 000 nM concentrations of compounds. Incubations were performed at suitable temperatures and for suitable times to allow equilibrium to be reached. Non-specific binding was determined in the presence of 10 uM PGE2. Bound and free radiolabel was separated by vacuum manifold filtration using appropriate wash buffers, and bound radiolabel was determined by scintillation counting. Constituents of each of the buffers are included in table 1 below. […] Raven Press, New York, 2nd edition.

human EP3 receptor = target: T3, human EP3 receptor (Homo sapiens, UniProt P43115); experiment: Binding ability to human EP receptors ([3H]PGE2 displacement), EP3; conditions: membranes expressing human EP3; [3H]PGE2 2.5 nM; Cheng-Prusoff; read-out: pKi (M) EP3 (converted)
T3 construct: expressed in transfected cells
T3 sequence (P43115 1-390): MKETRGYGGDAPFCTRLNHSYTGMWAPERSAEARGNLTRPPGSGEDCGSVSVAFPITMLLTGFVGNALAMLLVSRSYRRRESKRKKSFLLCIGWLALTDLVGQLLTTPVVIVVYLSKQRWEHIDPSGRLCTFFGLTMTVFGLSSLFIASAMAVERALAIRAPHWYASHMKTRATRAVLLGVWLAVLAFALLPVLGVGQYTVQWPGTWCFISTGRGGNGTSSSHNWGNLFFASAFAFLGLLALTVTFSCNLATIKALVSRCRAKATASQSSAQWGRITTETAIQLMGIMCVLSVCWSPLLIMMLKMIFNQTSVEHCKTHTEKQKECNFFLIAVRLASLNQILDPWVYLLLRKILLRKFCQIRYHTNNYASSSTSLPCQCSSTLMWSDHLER
Method: as §1

human EP4 receptor = target: T4, human EP4 receptor (Homo sapiens, UniProt P35408); experiment: Binding ability to human EP receptors ([3H]PGE2 displacement), EP4; conditions: membranes expressing human EP4; [3H]PGE2 1 nM; Cheng-Prusoff; read-out: pKi (M) EP4 (converted)
T4 construct: expressed in transfected cells
T4 sequence (P35408 whole entry): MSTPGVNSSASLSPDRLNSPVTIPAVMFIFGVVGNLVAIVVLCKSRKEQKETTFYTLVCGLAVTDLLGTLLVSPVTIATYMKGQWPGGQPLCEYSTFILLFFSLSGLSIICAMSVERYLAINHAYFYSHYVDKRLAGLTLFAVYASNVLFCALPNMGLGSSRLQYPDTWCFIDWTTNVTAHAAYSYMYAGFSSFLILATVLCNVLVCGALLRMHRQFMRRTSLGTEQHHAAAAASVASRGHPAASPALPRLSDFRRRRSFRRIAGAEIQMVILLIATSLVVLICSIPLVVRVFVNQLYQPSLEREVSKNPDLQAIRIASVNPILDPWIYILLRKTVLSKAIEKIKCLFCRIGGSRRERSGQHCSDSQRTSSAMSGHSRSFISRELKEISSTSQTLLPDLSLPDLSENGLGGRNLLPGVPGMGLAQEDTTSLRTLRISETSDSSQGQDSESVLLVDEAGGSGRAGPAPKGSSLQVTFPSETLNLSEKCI
Method: as §1

T1 sequence (P43116 whole entry): as the sequence (P43116 whole entry) above

Row | Structure (SMILES) | EC50 [1] [µM] | activity (EP2 part) [1] | Ki (human EP2 receptor) [M] | Ki (human EP3 receptor) [M] | Ki (human EP4 receptor) [M]
1 | COc1ccc(-c2ccc(C(=O)Nc3cccc(CC(=O)O)c3)o2)cc1 [Compound 12, (3-[(5-(4-Methoxy-phenyl)-furan-2-carbonyl)-amino]-phenyl)-acetic acid] | < 1 | EP2 agonist | < 1e-06 | > 1e-05 | > 1e-05
2 | CN(C)c1ccc(-c2ccc(C(=O)Nc3cccc(CC(=O)O)c3)o2)cc1 [Compound 14, (3-[(5-(4-Dimethylamino-phenyl)-furan-2-carbonyl)-amino]-phenyl)-acetic acid] | < 10 | EP2 agonist | < 1e-06 | > 1e-05 | > 1e-05
3 | COc1cccc(-c2ccc(C(=O)Nc3cccc(CC(=O)O)c3)o2)c1 [Compound 18, (3-{[5-(3-Methoxy-phenyl)-furan-2-carbonyl]-amino}-phenyl)-acetic acid] | < 1 | EP2 agonist | < 1e-06 | > 1e-05 | > 1e-05
4 | CC(=O)c1cccc(-c2ccc(C(=O)Nc3cccc(CC(=O)O)c3)o2)c1 [Compound 19, (3-{[5-(3-Acetyl-phenyl)-furan-2-carbonyl]-amino}-phenyl)-acetic acid] | < 10 | EP2 agonist | < 1e-06 | > 1e-05 | > 1e-05
5 | CC(=O)c1ccc(-c2ccc(C(=O)Nc3cccc(CC(=O)O)c3)o2)cc1 [Compound 20, (3-{[5-(4-Acetyl-phenyl)-furan-2-carbonyl]-amino}-phenyl)-acetic acid] | < 10 | EP2 agonist | < 1e-06 | > 1e-05 | > 1e-05
6 | CC(C)c1cccc(-c2ccc(C(=O)Nc3cccc(CC(=O)O)c3)o2)c1 [Compound 34, (3-{[5-(3-Isopropyl-phenyl)-furan-2-carbonyl]-amino}-phenyl)-acetic acid] | < 1 | EP2 agonist | < 1e-06 | > 1e-05 | < 1e-06
7 | O=C(O)Cc1cccc(NC(=O)c2ccc(-c3ccc4c(c3)OCO4)o2)c1 [Compound 36, {3-[(5-Benzo[1,3]dioxol-5-yl-furan-2-carbonyl)-amino]-phenyl}-acetic acid] | < 0.1 | EP2 agonist | < 1e-06 | > 1e-05 | > 1e-05
8 | O=C(O)/C=C/c1cccc(SCc2csc(-c3ccccc3)n2)c1 [Compound 122, 3-[3-(2-Phenyl-thiazol-4-ylmethylsulfanyl)-phenyl]-acrylic acid] | – | – | < 1e-07 | > 1e-05 | < 1e-06
9 | O=C(O)/C=C/c1cccc(NC(=O)c2ccc(C34CC5CC(CC(C5)C3)C4)o2)c1 [Compound 123, 3-{3-[(5-Adamantan-1-yl-furan-2-carbonyl)-amino]-phenyl}-acrylic acid] | – | – | < 1e-06 | > 1e-05 | > 1e-05
10 | O=C(Nc1cccc(OCc2nnn[nH]2)c1)c1cccc(-c2ccccc2)n1 [Compound 174, 6-Phenyl-pyridine-2-carboxylic acid [3-(1H-tetrazol-5-ylmethoxy)-phenyl]-amide] | – | – | < 1e-07 | > 1e-05 | < 1e-06
11 | O=C(Nc1cccc(/C=C/c2nnn[nH]2)c1)c1cccc(-c2ccccc2)n1 [Compound 175, 6-Phenyl-pyridine-2-carboxylic acid {3-[2-(1H-tetrazol-5-yl)-vinyl]phenyl}-amide] | – | – | < 1e-07 | > 1e-05 | < 1e-07
12 | O=C(Nc1cccc(/C=C/c2nnn[nH]2)c1)c1cc(-c2ccccc2)ccc1F [Compound 176, 4-Fluoro-biphenyl-3-carboxylic acid {3-[2-(1H-tetrazol-5-yl)-vinyl]phenyl}-amide] | – | – | < 1e-07 | > 1e-05 | > 1e-05

More lines, now with the values ahead:

Row | EC50 [1] [µM] | activity (EP2 part) [1] | Ki (human EP2 receptor) [M] | Ki (human EP3 receptor) [M] | Ki (human EP4 receptor) [M] | Structure (SMILES)
13 | < 1 | EP2 agonist | < 1e-06 | > 1e-05 | > 1e-05 | O=C(O)Cc1cccc(NC(=O)c2ccc(-c3ccccc3)o2)c1 [Compound 10, (3-{[5-(phenyl)-furan-2-carbonyl]-amino}-phenyl)-acetic acid]
14 | < 1 | EP2 agonist | < 1e-06 | > 1e-05 | > 1e-05 | COc1ccccc1-c1ccc(C(=O)Nc2cccc(CC(=O)O)c2)o1 [Compound 17, (3-{[5-(2-Methoxy-phenyl)-furan-2-carbonyl]-amino}-phenyl)-acetic acid]
15 | < 1 | EP2 agonist | < 1e-06 | > 1e-05 | > 1e-05 | Cc1cccc(-c2ccc(C(=O)Nc3cccc(CC(=O)O)c3)o2)c1 [Compound 21, (3-{[5-(3-Methyl-phenyl)-furan-2-carbonyl]-amino}-phenyl)-acetic acid]
16 | < 0.1 | EP2 agonist | < 1e-07 | > 1e-05 | > 1e-05 | O=C(O)Cc1cccc(NC(=O)c2ccc(-c3ccc(Cl)c(Cl)c3)o2)c1 [Compound 27, (3-{[5-(3,4-Dichloro-phenyl)-furan-2-carbonyl]-amino}-phenyl)-acetic acid]
17 | < 1 | EP2 Agonist | < 1e-05 | > 1e-05 | > 1e-05 | O=C(O)Cc1cccc(NC(=O)c2ccc(-c3ccccc3Cl)o2)c1 [Compound 30, (3-{[5-(2-Chloro-phenyl)-furan-2-carbonyl]-amino}-phenyl)-acetic acid]
18 | < 1 | EP2 agonist | < 1e-06 | > 1e-05 | < 1e-06 | O=C(O)Cc1cccc(NC(=O)c2ccc(-c3cccc4ccccc34)o2)c1 [Compound 31, {3-[(5-Naphthalen-1-yl-furan-2-carbonyl)-amino]-phenyl}-acetic acid]
19 | < 1 | EP2 agonist | < 1e-06 | > 1e-05 | > 1e-05 | O=C(O)Cc1cccc(NC(=O)c2ccc(-c3cccc(Cl)c3Cl)o2)c1 [Compound 37, (3-{[5-(2,3-Dichloro-phenyl)-furan-2-carbonyl]-amino}-phenyl)-acetic acid]
20 | < 0.1 | EP2 agonist | < 1e-07 | > 1e-05 | > 1e-05 | O=C(O)Cc1cccc(NC(=O)c2ccc(-c3cccc(Cl)c3)o2)c1 [Compound 39, (3-{[5-(3-Chloro-phenyl)-furan-2-carbonyl]-amino}-phenyl)-acetic acid]
21 | < 0.1 | EP2 agonist | < 1e-06 | > 1e-05 | > 1e-05 | O=C(O)Cc1cccc(NC(=O)c2ccc(-c3ccc(Cl)cc3)o2)c1 [Compound 40, (3-{[5-(4-Chloro-phenyl)-furan-2-carbonyl]-amino}-phenyl)-acetic acid]

Source: patent US7326732B2, “EP2 receptor agonists” (Pharmagene Laboratories Limited, priority 2004, dated 2008)
